Experimental data: the supplement of paper PMC10307832

Legend:
Assay in all cases: relative viability (nuclei count vs DMSO), 5 days (fraction); higher = more cells survive
Sorafenib + Palbociclib = compound: CNC(=O)c1cc(Oc2ccc(NC(=O)Nc3ccc(Cl)c(C(F)(F)F)c3)cc2)ccn1 [Sorafenib] + CC(=O)c1c(C)c2cnc(Nc3ccc(N4CCNCC4)cn3)nc2n(C2CCCC2)c1=O [Palbociclib] (partner 0.5 µM)
Summary of the method: (§1)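 One day after seeding in 1536-well plates, lung cancer cell lines were dosed by pin tool. Dosing was either single-drug or a fixed anchor-drug dose plus five library-drug doses (not always all listed) in √10 steps. After 5 days, nuclei were stained in one fix-and-stain step and counted on 4× images, and relative viability is the nuclei count of treated wells over that of vehicle wells, given as the median of duplicate plates.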

Sorafenib + Tozasertib = compound: CNC(=O)c1cc(Oc2ccc(NC(=O)Nc3ccc(Cl)c(C(F)(F)F)c3)cc2)ccn1 [Sorafenib] + Cc1cc(Nc2cc(N3CCN(C)CC3)nc(Sc3ccc(NC(=O)C4CC4)cc3)n2)n[nH]1 [Tozasertib] (partner 0.1 µM)
Summary of the method: as §1

Sorafenib + Linsitinib = compound: CNC(=O)c1cc(Oc2ccc(NC(=O)Nc3ccc(Cl)c(C(F)(F)F)c3)cc2)ccn1 [Sorafenib] + C[C@]1(O)C[C@@H](c2nc(-c3ccc4ccc(-c5ccccc5)nc4c3)c3c(N)nccn32)C1 [Linsitinib] (partner 1 µM)
Summary of the method: as §1

Sorafenib + Dasatinib = compound: CNC(=O)c1cc(Oc2ccc(NC(=O)Nc3ccc(Cl)c(C(F)(F)F)c3)cc2)ccn1 [Sorafenib] + Cc1nc(Nc2ncc(C(=O)Nc3c(C)cccc3Cl)s2)cc(N2CCN(CCO)CC2)n1 [Dasatinib] (partner 0.075 µM)
Summary of the method: as §1

Sorafenib + Decitabine = compound: CNC(=O)c1cc(Oc2ccc(NC(=O)Nc3ccc(Cl)c(C(F)(F)F)c3)cc2)ccn1 [Sorafenib] + Nc1ncn([C@H]2C[C@H](O)[C@@H](CO)O2)c(=O)n1 [Decitabine] (partner 2 µM)
Summary of the method: as §1

Cell Line EMC-BAC-2 has a relative viability (Sorafenib + Palbociclib; first compound 0.08 µM) of 0.519, a relative viability (Sorafenib + Palbociclib; first compound 0.253 µM) of 0.439 and a relative viability (Sorafenib + Palbociclib; first compound 2.53 µM) of 0.467. It also gave a relative viability (Sorafenib + Palbociclib; first compound 8 µM) of 0.477, a relative viability (Sorafenib + Tozasertib; first compound 0.08 µM) of 0.297 and a relative viability (Sorafenib + Tozasertib; first compound 0.253 µM) of 0.186. For the same cell line, the relative viability (Sorafenib + Tozasertib; first compound 2.53 µM) was 0.266, the relative viability (Sorafenib + Tozasertib; first compound 8 µM) was 0.295 and the relative viability (Sorafenib + Linsitinib; first compound 0.08 µM) was 0.821. For the same cell line, the relative viability (Sorafenib + Linsitinib; first compound 0.253 µM) was 0.788, the relative viability (Sorafenib + Linsitinib; first compound 2.53 µM) was 0.838 and the relative viability (Sorafenib + Linsitinib; first compound 8 µM) was 0.771. It also gave a relative viability (Sorafenib + Dasatinib; first compound 0.08 µM) of 0.301, a relative viability (Sorafenib + Dasatinib; first compound 0.253 µM) of 0.268 and a relative viability (Sorafenib + Dasatinib; first compound 2.53 µM) of 0.354. It also gave a relative viability (Sorafenib + Dasatinib; first compound 8 µM) of 0.299, a relative viability (Sorafenib + Decitabine; first compound 0.08 µM) of 0.925 and a relative viability (Sorafenib + Decitabine; first compound 8 µM) of 0.757.

With EPLC-272H the relative viability (Sorafenib + Palbociclib; first compound 0.08 µM) was 0.332, the relative viability (Sorafenib + Palbociclib; first compound 0.253 µM) was 0.338 and the relative viability (Sorafenib + Palbociclib; first compound 2.53 µM) was 0.486. The relative viability (Sorafenib + Palbociclib; first compound 8 µM) was 0.295, the relative viability (Sorafenib + Tozasertib; first compound 0.08 µM) was 0.331 and the relative viability (Sorafenib + Tozasertib; first compound 0.253 µM) was 0.389. The relative viability (Sorafenib + Tozasertib; first compound 2.53 µM) was 0.389, the relative viability (Sorafenib + Tozasertib; first compound 8 µM) was 0.293 and the relative viability (Sorafenib + Linsitinib; first compound 0.08 µM) was 1.31. The relative viability (Sorafenib + Linsitinib; first compound 0.253 µM) was 1.09, the relative viability (Sorafenib + Linsitinib; first compound 2.53 µM) was 1.11 and the relative viability (Sorafenib + Dasatinib; first compound 0.08 µM) was 0.479. For the same cell line, the relative viability (Sorafenib + Dasatinib; first compound 0.253 µM) was 0.341, the relative viability (Sorafenib + Dasatinib; first compound 2.53 µM) was 0.402 and the relative viability (Sorafenib + Dasatinib; first compound 8 µM) was 0.254. The relative viability (Sorafenib + Decitabine; first compound 0.08 µM) was 0.42, the relative viability (Sorafenib + Decitabine; first compound 0.253 µM) was 0.395 and the relative viability (Sorafenib + Decitabine; first compound 2.53 µM) was 0.388. The relative viability (Sorafenib + Decitabine; first compound 8 µM) was 0.284.

Work on H3255 yielded a relative viability (Sorafenib + Palbociclib; first compound 0.08 µM) of 0.33, a relative viability (Sorafenib + Palbociclib; first compound 0.253 µM) of 0.3 and a relative viability (Sorafenib + Palbociclib; first compound 2.53 µM) of 0.306. For the same cell line, the relative viability (Sorafenib + Palbociclib; first compound 8 µM) was 0.287, the relative viability (Sorafenib + Tozasertib; first compound 0.08 µM) was 0.588 and the relative viability (Sorafenib + Tozasertib; first compound 0.253 µM) was 0.458. It also gave a relative viability (Sorafenib + Tozasertib; first compound 2.53 µM) of 0.72, a relative viability (Sorafenib + Tozasertib; first compound 8 µM) of 0.482 and a relative viability (Sorafenib + Linsitinib; first compound 0.253 µM) of 0.71. The relative viability (Sorafenib + Linsitinib; first compound 2.53 µM) was 0.903, the relative viability (Sorafenib + Linsitinib; first compound 8 µM) was 0.611 and the relative viability (Sorafenib + Dasatinib; first compound 0.08 µM) was 0.497. The relative viability (Sorafenib + Dasatinib; first compound 0.253 µM) was 0.344, the relative viability (Sorafenib + Dasatinib; first compound 2.53 µM) was 0.345 and the relative viability (Sorafenib + Dasatinib; first compound 8 µM) was 0.201. The relative viability (Sorafenib + Decitabine; first compound 0.08 µM) was 0.656, the relative viability (Sorafenib + Decitabine; first compound 0.253 µM) was 0.523 and the relative viability (Sorafenib + Decitabine; first compound 2.53 µM) was 0.593. The relative viability (Sorafenib + Decitabine; first compound 8 µM) was 0.366.

HARA gave a relative viability (Sorafenib + Palbociclib; first compound 0.08 µM) of 0.295, a relative viability (Sorafenib + Palbociclib; first compound 0.253 µM) of 0.286 and a relative viability (Sorafenib + Palbociclib; first compound 2.53 µM) of 0.303. For the same cell line, the relative viability (Sorafenib + Palbociclib; first compound 8 µM) was 0.339, the relative viability (Sorafenib + Tozasertib; first compound 0.08 µM) was 0.0919 and the relative viability (Sorafenib + Tozasertib; first compound 0.253 µM) was 0.137. The relative viability (Sorafenib + Tozasertib; first compound 2.53 µM) was 0.146, the relative viability (Sorafenib + Tozasertib; first compound 8 µM) was 0.1 and the relative viability (Sorafenib + Linsitinib; first compound 0.08 µM) was 1.13. The relative viability (Sorafenib + Linsitinib; first compound 0.253 µM) was 0.859, the relative viability (Sorafenib + Linsitinib; first compound 2.53 µM) was 0.94 and the relative viability (Sorafenib + Linsitinib; first compound 8 µM) was 0.927. It also gave a relative viability (Sorafenib + Dasatinib; first compound 0.08 µM) of 0.296, a relative viability (Sorafenib + Dasatinib; first compound 0.253 µM) of 0.197 and a relative viability (Sorafenib + Dasatinib; first compound 2.53 µM) of 0.248. It also gave a relative viability (Sorafenib + Dasatinib; first compound 8 µM) of 0.229, a relative viability (Sorafenib + Decitabine; first compound 0.08 µM) of 0.633 and a relative viability (Sorafenib + Decitabine; first compound 0.253 µM) of 0.465. It also gave a relative viability (Sorafenib + Decitabine; first compound 2.53 µM) of 0.592 and a relative viability (Sorafenib + Decitabine; first compound 8 µM) of 0.461.

With HCC-15 the relative viability (Sorafenib + Palbociclib; first compound 0.08 µM) was 0.77, the relative viability (Sorafenib + Palbociclib; first compound 0.253 µM) was 0.619 and the relative viability (Sorafenib + Palbociclib; first compound 2.53 µM) was 0.708. For the same cell line, the relative viability (Sorafenib + Palbociclib; first compound 8 µM) was 0.48, the relative viability (Sorafenib + Tozasertib; first compound 0.08 µM) was 0.443 and the relative viability (Sorafenib + Tozasertib; first compound 0.253 µM) was 0.438. For the same cell line, the relative viability (Sorafenib + Tozasertib; first compound 2.53 µM) was 0.372, the relative viability (Sorafenib + Tozasertib; first compound 8 µM) was 0.179 and the relative viability (Sorafenib + Linsitinib; first compound 0.253 µM) was 0.873. It also gave a relative viability (Sorafenib + Linsitinib; first compound 2.53 µM) of 0.846, a relative viability (Sorafenib + Linsitinib; first compound 8 µM) of 0.554 and a relative viability (Sorafenib + Dasatinib; first compound 0.08 µM) of 0.697. It also gave a relative viability (Sorafenib + Dasatinib; first compound 0.253 µM) of 0.68, a relative viability (Sorafenib + Dasatinib; first compound 2.53 µM) of 0.774 and a relative viability (Sorafenib + Dasatinib; first compound 8 µM) of 0.417. It also gave a relative viability (Sorafenib + Decitabine; first compound 0.08 µM) of 0.679, a relative viability (Sorafenib + Decitabine; first compound 0.253 µM) of 0.631 and a relative viability (Sorafenib + Decitabine; first compound 2.53 µM) of 0.723. It also gave a relative viability (Sorafenib + Decitabine; first compound 8 µM) of 0.321.

For HCC-44, the relative viability (Sorafenib + Palbociclib; first compound 0.08 µM) was 0.96, the relative viability (Sorafenib + Palbociclib; first compound 0.253 µM) was 0.771 and the relative viability (Sorafenib + Palbociclib; first compound 2.53 µM) was 0.858. The relative viability (Sorafenib + Palbociclib; first compound 8 µM) was 0.834, the relative viability (Sorafenib + Tozasertib; first compound 0.08 µM) was 0.884 and the relative viability (Sorafenib + Tozasertib; first compound 0.253 µM) was 0.688. The relative viability (Sorafenib + Tozasertib; first compound 2.53 µM) was 0.858, the relative viability (Sorafenib + Tozasertib; first compound 8 µM) was 0.773 and the relative viability (Sorafenib + Linsitinib; first compound 0.08 µM) was 0.68. It also gave a relative viability (Sorafenib + Linsitinib; first compound 0.253 µM) of 0.629, a relative viability (Sorafenib + Linsitinib; first compound 8 µM) of 0.658 and a relative viability (Sorafenib + Decitabine; first compound 0.253 µM) of 0.862. The relative viability (Sorafenib + Decitabine; first compound 2.53 µM) was 0.886 and the relative viability (Sorafenib + Decitabine; first compound 8 µM) was 0.866.

HCC-78 was tested, and the relative viability (Sorafenib + Palbociclib; first compound 0.08 µM) was 0.468, the relative viability (Sorafenib + Palbociclib; first compound 0.253 µM) was 0.471 and the relative viability (Sorafenib + Palbociclib; first compound 2.53 µM) was 0.529. For the same cell line, the relative viability (Sorafenib + Palbociclib; first compound 8 µM) was 0.476, the relative viability (Sorafenib + Tozasertib; first compound 0.08 µM) was 0.391 and the relative viability (Sorafenib + Tozasertib; first compound 0.253 µM) was 0.371. For the same cell line, the relative viability (Sorafenib + Tozasertib; first compound 2.53 µM) was 0.492, the relative viability (Sorafenib + Tozasertib; first compound 8 µM) was 0.493 and the relative viability (Sorafenib + Linsitinib; first compound 0.08 µM) was 0.562. The relative viability (Sorafenib + Linsitinib; first compound 0.253 µM) was 0.42, the relative viability (Sorafenib + Linsitinib; first compound 2.53 µM) was 0.457 and the relative viability (Sorafenib + Linsitinib; first compound 8 µM) was 0.573. For the same cell line, the relative viability (Sorafenib + Dasatinib; first compound 0.08 µM) was 0.46, the relative viability (Sorafenib + Dasatinib; first compound 0.253 µM) was 0.393 and the relative viability (Sorafenib + Dasatinib; first compound 2.53 µM) was 0.549. The relative viability (Sorafenib + Dasatinib; first compound 8 µM) was 0.397, the relative viability (Sorafenib + Decitabine; first compound 0.08 µM) was 0.752 and the relative viability (Sorafenib + Decitabine; first compound 0.253 µM) was 0.634. The relative viability (Sorafenib + Decitabine; first compound 2.53 µM) was 0.608 and the relative viability (Sorafenib + Decitabine; first compound 8 µM) was 0.596.

With HCC-366 the relative viability (Sorafenib + Palbociclib; first compound 0.08 µM) was 0.393, the relative viability (Sorafenib + Palbociclib; first compound 0.253 µM) was 0.424 and the relative viability (Sorafenib + Palbociclib; first compound 2.53 µM) was 0.323. For the same cell line, the relative viability (Sorafenib + Palbociclib; first compound 8 µM) was 0.353, the relative viability (Sorafenib + Tozasertib; first compound 0.08 µM) was 0.109 and the relative viability (Sorafenib + Tozasertib; first compound 0.253 µM) was 0.083. For the same cell line, the relative viability (Sorafenib + Tozasertib; first compound 2.53 µM) was 0.054, the relative viability (Sorafenib + Tozasertib; first compound 8 µM) was 0.0297 and the relative viability (Sorafenib + Linsitinib; first compound 0.08 µM) was 0.66. The relative viability (Sorafenib + Linsitinib; first compound 0.253 µM) was 0.628, the relative viability (Sorafenib + Linsitinib; first compound 2.53 µM) was 0.732 and the relative viability (Sorafenib + Linsitinib; first compound 8 µM) was 0.463. It also gave a relative viability (Sorafenib + Dasatinib; first compound 0.08 µM) of 0.626, a relative viability (Sorafenib + Dasatinib; first compound 0.253 µM) of 0.551 and a relative viability (Sorafenib + Dasatinib; first compound 2.53 µM) of 0.639. For the same cell line, the relative viability (Sorafenib + Dasatinib; first compound 8 µM) was 0.518, the relative viability (Sorafenib + Decitabine; first compound 0.08 µM) was 0.337 and the relative viability (Sorafenib + Decitabine; first compound 0.253 µM) was 0.295. For the same cell line, the relative viability (Sorafenib + Decitabine; first compound 2.53 µM) was 0.34 and the relative viability (Sorafenib + Decitabine; first compound 8 µM) was 0.279.
